Assay results reported in ChEMBL document CHEMBL5653615 (J Biol Chem, 2013).
One block for each compound: values may come before it.

Legend:
[1] = target: T1, Dual specificity tyrosine-phosphorylation-regulated kinase 2 (Homo sapiens) (UniProt Q92630); assay: Inhibition of human DYRK2 at 500 nM by HotSpot assay relative to control
T1 sequence (whole entry): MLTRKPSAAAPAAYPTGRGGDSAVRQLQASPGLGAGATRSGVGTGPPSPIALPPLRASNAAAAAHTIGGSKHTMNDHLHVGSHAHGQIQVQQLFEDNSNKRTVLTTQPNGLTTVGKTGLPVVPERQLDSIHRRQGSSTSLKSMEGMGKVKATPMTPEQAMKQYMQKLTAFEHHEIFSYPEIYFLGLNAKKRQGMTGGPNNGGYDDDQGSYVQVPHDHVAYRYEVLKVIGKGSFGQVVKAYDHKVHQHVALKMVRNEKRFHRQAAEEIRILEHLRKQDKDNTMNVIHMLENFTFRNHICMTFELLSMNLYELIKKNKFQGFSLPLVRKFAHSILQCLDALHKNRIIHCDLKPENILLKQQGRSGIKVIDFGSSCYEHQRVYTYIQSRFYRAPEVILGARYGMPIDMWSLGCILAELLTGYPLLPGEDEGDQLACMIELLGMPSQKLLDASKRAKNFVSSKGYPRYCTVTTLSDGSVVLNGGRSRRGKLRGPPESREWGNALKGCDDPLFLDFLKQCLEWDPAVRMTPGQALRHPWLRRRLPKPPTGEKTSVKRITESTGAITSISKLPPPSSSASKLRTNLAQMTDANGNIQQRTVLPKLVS

[2] = target: T2, Mitogen-activated protein kinase kinase kinase 5 (Homo sapiens) (UniProt Q99683); assay: Inhibition of human ASK1 at 18.6 nM by HotSpot assay relative to control
T2 sequence (whole entry): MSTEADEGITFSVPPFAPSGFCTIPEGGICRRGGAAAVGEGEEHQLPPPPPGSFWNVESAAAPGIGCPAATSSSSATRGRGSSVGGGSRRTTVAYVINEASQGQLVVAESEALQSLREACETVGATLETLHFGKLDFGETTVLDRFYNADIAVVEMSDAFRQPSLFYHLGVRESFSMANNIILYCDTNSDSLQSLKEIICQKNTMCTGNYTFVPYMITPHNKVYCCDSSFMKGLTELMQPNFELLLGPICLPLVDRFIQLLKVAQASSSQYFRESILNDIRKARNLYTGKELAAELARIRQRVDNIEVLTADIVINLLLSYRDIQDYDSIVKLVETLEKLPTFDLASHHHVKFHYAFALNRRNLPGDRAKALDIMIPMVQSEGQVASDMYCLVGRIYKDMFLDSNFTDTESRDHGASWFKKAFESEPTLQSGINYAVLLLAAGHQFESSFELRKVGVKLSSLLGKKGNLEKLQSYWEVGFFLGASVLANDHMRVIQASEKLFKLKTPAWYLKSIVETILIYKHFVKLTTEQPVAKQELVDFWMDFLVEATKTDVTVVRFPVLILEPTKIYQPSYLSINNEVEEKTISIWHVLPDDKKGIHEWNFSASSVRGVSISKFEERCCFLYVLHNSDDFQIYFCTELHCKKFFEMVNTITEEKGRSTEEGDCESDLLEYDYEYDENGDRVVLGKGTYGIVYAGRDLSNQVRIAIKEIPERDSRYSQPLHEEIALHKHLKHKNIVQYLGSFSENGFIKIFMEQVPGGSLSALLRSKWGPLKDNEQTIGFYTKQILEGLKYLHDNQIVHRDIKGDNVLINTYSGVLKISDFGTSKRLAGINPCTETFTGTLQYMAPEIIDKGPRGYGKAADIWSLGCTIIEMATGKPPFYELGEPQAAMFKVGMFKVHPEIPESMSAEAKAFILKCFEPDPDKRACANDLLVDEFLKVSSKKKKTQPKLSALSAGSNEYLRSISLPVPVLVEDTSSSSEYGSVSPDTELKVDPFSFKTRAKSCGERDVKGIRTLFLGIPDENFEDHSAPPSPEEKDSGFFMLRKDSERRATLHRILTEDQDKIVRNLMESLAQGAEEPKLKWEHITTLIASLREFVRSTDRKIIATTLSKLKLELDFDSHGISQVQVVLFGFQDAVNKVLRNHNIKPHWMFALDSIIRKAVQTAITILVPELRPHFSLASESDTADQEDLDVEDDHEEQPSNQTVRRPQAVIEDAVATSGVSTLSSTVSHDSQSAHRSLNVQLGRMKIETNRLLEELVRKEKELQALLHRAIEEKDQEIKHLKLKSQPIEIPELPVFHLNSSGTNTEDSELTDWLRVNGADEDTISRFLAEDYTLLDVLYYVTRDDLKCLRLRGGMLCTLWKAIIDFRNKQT

[3] = target: Calcium/calmodulin-dependent protein kinase type II subunit gamma (Homo sapiens) (UniProt Q13555); assay: Inhibition of human CAMK2g at 18.6 nM by HotSpot assay relative to control
[4] = target: CDK6/cyclin D3 (Homo sapiens) (UniProt P30281+Q00534); assay: Inhibition of human CDK6/cyclin D3 at 18.6 nM by HotSpot assay relative to control; assay type: protein-complex assay
[5] = target: Macrophage colony-stimulating factor 1 receptor (Homo sapiens) (UniProt P07333); assay: Inhibition of human FMS at 18.6 nM by HotSpot assay relative to control
[6] = target: Ribosomal protein S6 kinase alpha-3 (Homo sapiens) (UniProt P51812); assay: Inhibition of human RSK2 at 18.6 nM by HotSpot assay relative to control
[7] = target: T3, Serine/threonine-protein kinase VRK1 (Homo sapiens) (UniProt Q99986); assay: Inhibition of human VRK1 at 18.6 nM by HotSpot assay relative to control
T3 sequence (whole entry): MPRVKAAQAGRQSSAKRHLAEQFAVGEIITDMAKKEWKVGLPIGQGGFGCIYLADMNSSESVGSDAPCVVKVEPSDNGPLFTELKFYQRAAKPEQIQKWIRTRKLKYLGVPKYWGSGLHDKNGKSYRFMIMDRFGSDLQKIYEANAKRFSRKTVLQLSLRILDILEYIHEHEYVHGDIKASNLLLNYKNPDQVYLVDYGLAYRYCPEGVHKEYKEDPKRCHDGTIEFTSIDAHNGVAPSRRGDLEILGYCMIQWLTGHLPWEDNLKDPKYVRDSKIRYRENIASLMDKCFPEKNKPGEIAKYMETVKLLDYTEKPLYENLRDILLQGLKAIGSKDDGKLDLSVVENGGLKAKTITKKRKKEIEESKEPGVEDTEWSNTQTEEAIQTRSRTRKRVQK

[8] = target: LIM domain kinase 1 (Homo sapiens) (UniProt P53667); assay: Inhibition of human LIMK1 at 1.82 nM by HotSpot assay relative to control
[9] = target: High affinity nerve growth factor receptor (Homo sapiens) (UniProt P04629); assay: Inhibition of human TRKA at 1.82 nM by HotSpot assay relative to control
Chain of High affinity nerve growth factor receptor (Homo sapiens) (P04629 33-796 limits assumed): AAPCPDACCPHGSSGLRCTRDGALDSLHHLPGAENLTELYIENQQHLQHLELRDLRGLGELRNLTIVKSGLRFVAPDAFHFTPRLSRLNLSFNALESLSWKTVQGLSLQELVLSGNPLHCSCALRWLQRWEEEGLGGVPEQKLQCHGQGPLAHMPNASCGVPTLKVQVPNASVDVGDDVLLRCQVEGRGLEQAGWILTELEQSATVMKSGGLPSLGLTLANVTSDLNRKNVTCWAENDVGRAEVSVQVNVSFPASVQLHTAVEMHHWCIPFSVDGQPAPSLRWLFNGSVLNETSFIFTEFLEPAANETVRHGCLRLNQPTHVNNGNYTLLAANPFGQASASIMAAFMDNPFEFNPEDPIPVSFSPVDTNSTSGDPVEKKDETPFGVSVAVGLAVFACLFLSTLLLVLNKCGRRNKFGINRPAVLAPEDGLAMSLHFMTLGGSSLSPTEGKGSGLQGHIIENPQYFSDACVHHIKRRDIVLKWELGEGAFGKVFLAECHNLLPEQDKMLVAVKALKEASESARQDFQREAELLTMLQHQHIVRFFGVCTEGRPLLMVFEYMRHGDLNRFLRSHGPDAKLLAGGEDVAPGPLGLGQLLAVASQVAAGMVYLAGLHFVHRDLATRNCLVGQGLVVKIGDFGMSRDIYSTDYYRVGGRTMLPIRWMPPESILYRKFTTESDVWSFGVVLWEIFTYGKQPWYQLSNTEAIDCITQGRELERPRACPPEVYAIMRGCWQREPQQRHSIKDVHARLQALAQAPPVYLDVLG

Chain of Calcium/calmodulin-dependent protein kinase type II subunit gamma (Homo sapiens) (Q13555 whole entry): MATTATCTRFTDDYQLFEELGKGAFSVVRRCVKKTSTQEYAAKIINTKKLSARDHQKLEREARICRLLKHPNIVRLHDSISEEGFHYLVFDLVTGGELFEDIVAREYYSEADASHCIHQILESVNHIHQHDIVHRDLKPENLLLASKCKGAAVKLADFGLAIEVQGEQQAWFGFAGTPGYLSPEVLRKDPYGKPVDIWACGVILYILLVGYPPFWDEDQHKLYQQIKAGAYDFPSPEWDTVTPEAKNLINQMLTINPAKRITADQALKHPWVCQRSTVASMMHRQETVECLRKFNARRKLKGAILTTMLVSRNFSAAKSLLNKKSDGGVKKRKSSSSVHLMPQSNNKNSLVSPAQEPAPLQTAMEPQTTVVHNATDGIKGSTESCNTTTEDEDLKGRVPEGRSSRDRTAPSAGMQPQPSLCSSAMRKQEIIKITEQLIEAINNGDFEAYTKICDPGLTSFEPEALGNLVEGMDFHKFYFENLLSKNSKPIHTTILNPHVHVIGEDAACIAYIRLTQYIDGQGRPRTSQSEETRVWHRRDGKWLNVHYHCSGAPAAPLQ
Chain of LIM domain kinase 1 (Homo sapiens) (P53667 whole entry, looked up, the tested form may be a part): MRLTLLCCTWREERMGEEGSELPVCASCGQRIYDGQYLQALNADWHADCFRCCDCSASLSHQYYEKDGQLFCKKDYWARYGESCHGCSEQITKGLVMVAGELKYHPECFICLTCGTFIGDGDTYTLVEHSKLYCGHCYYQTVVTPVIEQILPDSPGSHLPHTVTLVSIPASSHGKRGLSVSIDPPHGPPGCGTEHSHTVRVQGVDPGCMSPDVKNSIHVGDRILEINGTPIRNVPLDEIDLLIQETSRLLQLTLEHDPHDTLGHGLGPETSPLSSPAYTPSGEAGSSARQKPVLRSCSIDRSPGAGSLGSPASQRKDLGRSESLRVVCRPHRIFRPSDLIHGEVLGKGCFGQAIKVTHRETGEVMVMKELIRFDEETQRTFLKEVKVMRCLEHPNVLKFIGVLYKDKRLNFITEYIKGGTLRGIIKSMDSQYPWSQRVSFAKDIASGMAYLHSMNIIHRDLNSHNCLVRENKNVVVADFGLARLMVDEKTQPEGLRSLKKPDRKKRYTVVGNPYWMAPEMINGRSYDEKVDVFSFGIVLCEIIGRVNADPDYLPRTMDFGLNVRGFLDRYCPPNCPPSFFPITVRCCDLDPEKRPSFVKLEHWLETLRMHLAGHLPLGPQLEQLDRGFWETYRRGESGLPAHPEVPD
Chain of Macrophage colony-stimulating factor 1 receptor (Homo sapiens) (P07333 whole entry): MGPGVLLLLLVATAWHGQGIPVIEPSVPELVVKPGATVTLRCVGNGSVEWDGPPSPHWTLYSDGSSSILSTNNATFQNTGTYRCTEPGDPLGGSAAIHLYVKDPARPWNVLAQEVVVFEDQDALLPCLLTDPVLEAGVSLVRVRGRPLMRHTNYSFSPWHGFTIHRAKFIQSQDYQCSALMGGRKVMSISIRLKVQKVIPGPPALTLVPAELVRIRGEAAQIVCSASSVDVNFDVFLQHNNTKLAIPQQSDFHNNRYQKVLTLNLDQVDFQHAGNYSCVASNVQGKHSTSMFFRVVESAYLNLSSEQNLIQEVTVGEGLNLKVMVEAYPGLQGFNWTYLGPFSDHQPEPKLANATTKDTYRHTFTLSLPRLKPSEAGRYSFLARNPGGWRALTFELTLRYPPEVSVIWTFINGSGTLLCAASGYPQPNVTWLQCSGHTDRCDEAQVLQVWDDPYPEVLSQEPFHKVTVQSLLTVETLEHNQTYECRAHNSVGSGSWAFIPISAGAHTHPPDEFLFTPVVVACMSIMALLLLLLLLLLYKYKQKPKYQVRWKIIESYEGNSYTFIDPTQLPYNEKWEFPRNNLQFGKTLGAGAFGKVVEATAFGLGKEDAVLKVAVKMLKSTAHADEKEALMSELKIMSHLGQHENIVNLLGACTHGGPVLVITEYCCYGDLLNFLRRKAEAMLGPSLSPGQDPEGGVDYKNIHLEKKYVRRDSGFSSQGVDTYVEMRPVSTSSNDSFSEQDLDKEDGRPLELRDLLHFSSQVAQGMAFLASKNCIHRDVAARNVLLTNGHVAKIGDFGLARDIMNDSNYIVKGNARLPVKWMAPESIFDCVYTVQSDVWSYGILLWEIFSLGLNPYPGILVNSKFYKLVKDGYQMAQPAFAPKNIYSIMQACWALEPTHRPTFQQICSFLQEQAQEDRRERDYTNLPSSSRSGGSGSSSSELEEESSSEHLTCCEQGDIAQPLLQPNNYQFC
Chain of Ribosomal protein S6 kinase alpha-3 (Homo sapiens) (P51812 whole entry): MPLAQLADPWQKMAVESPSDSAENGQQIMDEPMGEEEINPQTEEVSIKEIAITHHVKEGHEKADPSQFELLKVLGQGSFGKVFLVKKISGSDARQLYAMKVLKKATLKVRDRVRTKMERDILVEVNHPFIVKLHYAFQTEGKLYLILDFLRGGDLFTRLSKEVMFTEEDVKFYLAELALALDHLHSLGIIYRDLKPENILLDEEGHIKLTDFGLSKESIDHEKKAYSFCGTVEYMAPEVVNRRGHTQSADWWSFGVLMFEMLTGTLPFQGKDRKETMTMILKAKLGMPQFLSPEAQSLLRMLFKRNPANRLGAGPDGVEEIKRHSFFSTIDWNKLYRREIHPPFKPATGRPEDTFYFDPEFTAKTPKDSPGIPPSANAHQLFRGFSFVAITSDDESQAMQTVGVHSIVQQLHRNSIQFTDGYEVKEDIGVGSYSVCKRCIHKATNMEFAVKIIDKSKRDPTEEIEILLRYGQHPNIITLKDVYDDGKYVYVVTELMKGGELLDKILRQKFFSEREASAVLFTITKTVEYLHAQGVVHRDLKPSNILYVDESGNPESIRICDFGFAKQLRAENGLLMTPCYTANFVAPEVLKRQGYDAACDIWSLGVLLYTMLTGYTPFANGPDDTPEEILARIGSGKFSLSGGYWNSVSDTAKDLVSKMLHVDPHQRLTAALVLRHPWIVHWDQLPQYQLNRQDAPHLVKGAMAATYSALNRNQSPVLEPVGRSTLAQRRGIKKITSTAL

Structure (SMILES): Nc1n[nH]c2nnc(-c3c(-c4ccccc4)nn4ccccc34)cc12
- inhibition [1]: -3.42%

- inhibition [2]: -8.46%
- inhibition [3]: 2.76%
- inhibition [4]: -9.8%
- inhibition [5]: 5.25%
- inhibition [6]: 1.82%
- inhibition [7]: -6.1%
Structure (SMILES): C[C@]1(O)C[C@@H](c2nc(-c3ccc4ccc(-c5ccccc5)nc4c3)c3c(N)nccn32)C1

- inhibition [8]: -7.35%
- inhibition [9]: 21.1%
Structure (SMILES): C[C@@]1(C(=O)Nc2ccc(F)nc2)CCCN1c1nc(Nc2cc(C3CC3)n[nH]2)c2cccn2n1

Structure (SMILES): Oc1n[nH]c2nnc(-c3c(-c4ccccc4)nn4ccccc34)cc12
- inhibition [1]: -3.03%
